Here are results for one substance from patent US7074765B2, “Synthetic peptide analogs of Arg-Pro-Pro-Gly-Phe as selective inhibitors of thrombin and thrombin activation of protease activated receptors 1 and 4” (The Regents of the University of Michigan, priority 2003, dated 2006).

Test [1] deals with VCaP cells. Briefly: α-thrombin-induced intracellular calcium mobilization in VCaP cells. As to conditions: 2 nM α-thrombin. The test is classed as cell-based. The protocol: FIG. 13 examines the influence of MAP4-TH146 on thrombin-induced calcium mobilization in two prostate cancer cell lines that functionally express PAR 1. In Panel A, the influence of MAP4-TH146 on 2 nM α-thrombin-induced intracellular calcium mobilization in VCaP cells. Calcium flux is abolished by […]. At 6.25 μM MAP4-TH146, there is full recovery of thrombin-induced calcium flux. In Panel B, the influence of MAP4-TH146 on 2 nM α-thrombin-induced intracellular calcium mobilization in PC3 cells. Calcium flux is abolished by 200 μM MAP4-TH146. At 1.56 μM MAP4-TH146, calcium flux recovers.
On the technique in general: A change in cytosolic calcium serves as a functional read-out for many receptors and channels.

The test system of test [2] is normal human citrated plasma. Briefly: activated partial thromboplastin time (APTT). The class given is biochemical. As to conditions: normal human plasma; p<0.05. The protocol: The influence of the various peptide formulations used in the present invention on established coagulation-based assays was determined. The activated partial thromboplastin time (APTT) is performed by mixing 0.05 ml normal human citrated plasma with 0.05 ml activated partial thromboplastin reagent purchased from Organon Teknika, Research Triangle Park, N.C. in the absence or presence of a peptide inhibitor. After incubation for 5 min at 37° C., the mixture is recalcified with 0.05 ml of 30 mM calcium chloride and the time to clot formation is measured in an Amelung KC4A instrument (Sigma Chemical Corp, St. Louis, Mo.) (Hasan et al. Thrombosis and Haemostasis. 82, 1182–1187 (1999)). The prothrombin time (PT) is performed by mixing 0.05 ml normal human citrated plasma with 0.05 ml Simplastin (Organon Teknika, Research Triangle Park, N.C.) followed by incubation for 3 min at 37° C. in the absence or presence of a peptide inhibitor. At the addition of 0.05 ml of 30 mM calcium chloride, the time to clot formation is measured in an KC4A instrument (Sigma Chemical Corp, St. Louis, Mo.) (Hasan et al. Thrombosis and Haemostasis. 82, 1182–1187 (1999)). The thrombin clotting time (TCT) is performed by adding 0.1 ml normal human citrated plasma in the absence or presence of a peptide inhibitor and 0.05 ml of a α-thrombin solution such that the final concentration of the thrombin in the entire mixture was 1 nM. Upon addition of the thrombin, the time to clot formation is measured in an KC4A instrument (Sigma Chemical Corp, St. Louis, Mo.). In FIG. 5, peptide TH146 produces a significant prolongation (p<0.05) of the activated partial thromboplastin time at 15 μM, of the prothrombin time at 60 μM, and the thrombin clotting time at 15 μM. In FIG. 6, peptide MAP4-TH146 produced a significant prolongation (p<0.05) of the activated partial thromboplastin time at 0.195 μM, of the prothrombin time at 3.125 μM, and the thrombin clotting time at 0.39 μM.

In test [3] the target is T1, thrombocytin cleavage of recombinant human PAR1 extracellular domain (Homo sapiens, UniProt P25116).
T1 construct: A portion of the extracellular domain of human PAR1 (Ala^26-Ser^99) (rPAR1EC) was expressed in Escherichia coli; His10-DDDDK (pET19b) (N); made in house; host or cells: E. coli BL21(DE3), pET19b (rPAR1EC)
T1 sequence (P25116 26-99): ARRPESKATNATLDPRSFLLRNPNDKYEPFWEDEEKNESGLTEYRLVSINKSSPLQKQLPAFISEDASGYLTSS
Briefly: Inhibition of thrombocytin-induced cleavage of rPAR1EC. The test is classed as biochemical. As to conditions: 16.7 nM thrombocytin, 45 min, 37° C.; below concentration that blocks the enzyme's proteolytic activity. The protocol: Thrombocytin is a snake venom enzyme that activates platelets by cleaving PAR1 at the thrombin cleavage site (Santos et al., FEBS Letters. 18, 3570–3577 (2000)). […] The ability of MAP4-rOicPGF to block thrombocytin cleavage of rPAR1EC was performed as follows. One μg of rPAR1EC in 0.01 mM Tris-HCL, 0.2 M NaCl, pH 8.0 was incubated at 37° C. for 15 min or 45 min with 1 nM of α-thrombin or 0.5 μg/mL thrombocytin (16.7 nM), respectively, in the absence or presence of 0.025 to 1 mM MAP4-rOicPGF. The reaction mixture was separated on SDS-PAGE and stained with Coomassie Brilliant Blue. The cleaved gel images were scanned using the software Scion Image, ScionCorp, Frederick, Md.

Test [4] concerns normal human lung fibroblasts (NHLF). The test can be described thus: α-thrombin-induced calcium mobilization in fibroblasts. The test is classed as cell-based. The protocol: The second assay developed to assess peptides from the combinatorial libraries uses inhibition of α-thrombin-induced calcium mobilization in fibroblasts. Normal human lung fibroblasts (NHLF) were purchased from Clonetics, San Diego, Calif., an affiliate of Bio-Wittaker, Walkersville, Md. The cytoplasmic free Ca^2+ concentration ([Ca^2+]i) was measured using the fluorescent Ca^2+ indicator fura-2 (Molecular Probes, Inc., Eugene, Oreg.). Suspension of fibroblasts in Hepes-Tyrode's buffer were loaded with fura-2 by incubation at 37° C. with 2 μM fura-2/acetoxymethyl ester for 45 minutes according to the method of Rasmussen et al., J. Biol. Chem. 268, 14322 (1993). The labeled fibroblasts were separated from excess probe by washing by centrifugation at 1000 rpm (180×g). Aliquots of the labeled fibroblasts were transferred into a quartz cuvette with a magnetic stirrer, which was then placed in a thermostatically controlled chamber at 37° C. in a fluorescence spectrophotometer (Perkin-Elmer LS50B spectrofluorometer, Chicago, Ill.). Reagents, test peptide, and α-thrombin (0.25–2 nM), were sequentially added directly to the cuvette. The excitation wavelengths varied between 340 and 380 nm. Fluorescence was measured by recording emitted light at 510 nm as reported by Fisher et al., Mol Pharm. 35, 195 (1989). The minimum emission was determined on a solubilized fibroblast sample in the presence of 10 mM EDTA; maximum emission was determined on the same sample with 10 mM Ca^2+ added. The intrafibroblast free Ca^2+ concentration was calculated by the method of Grykiewicz et al., J. Biol. Chem. 260, 3440 (1985). […] The KD for fura-2 was assumed to be 224 nM. Rmax and Rmin are the maximum and minimum fluorescence ratios measured at the end of the experiment, respectively; Sf2 and Sb2 are the fluorescence values at 380 nm in the absence and presence of saturating [Ca^2+], respectively. The reaction was monitored for 3–5 minutes.

Where only a bound is given, the exact number is not on record here.

As for “β-Ala-Lys-2Lys-4(D-Arg-Oic-Pro-Gly-Phe) [MAP4-rOicPGF]”, the “effect on thrombin-induced calcium flux” value in test [1] (6.25 μM peptide) was “full recovery”; in test [1] (200 (unit not given) peptide), “abolished”. The “concentration giving significant prolongation of the APTT” value in test [2] came out at 0.195 µM. The “concentration that blocks thrombocytin cleavage of rPAR1EC” value in test [3] worked out at 0.2 mM. For the same substance, the “concentrations that blocked α-thrombin-induced Ca^2+ mobilization in fibroblasts” value in test [4] (0.25 nM α-thrombin) was no less than 3.1 µM. Further, in test [4] (0.2 mM peptide, 2 nM alpha thrombin), the “inhibition of calcium mobilization” value came to 98%. In addition, the “effect on alpha thrombin-induced calcium mobilization” value in test [4] (0.0016 (unit not given) peptide, 2 nM alpha thrombin) is “full recovery”.
